Test results reported in US20260048036A1, “CRYSTALLINE FORMS OF A GLUCOSYLCERAMIDE SYNTHASE INHIBITOR AND USES THEREOF” (ACELINK THERAPEUTICS, INC., priority 2022, published 2026).
Values after ≈ are worked out from the molar mass of the structure shown. Values joined by “and” are separate entries in the source; they are usually repeats but may differ in a detail not shown here. Identical values can stand only once. Like-named read-outs stand apart in the source and are kept apart here.

Columns and labels:
[1] = Hygroscopicity by DVS at 25° C.; format: physicochemical
[2] = target: T1, Glucosylceramide synthase (GCS) (Rattus norvegicus, UniProt Q9R0E0); experiment: GCS enzymatic assay with L6 cell lysate; format: biochemical; conditions: 0.1 μM, N = 1, N = 2
T1 construct: The MDCK, K-562, and L6 cell lines all endogenously express GCS enzyme; host or cells: L6 rat skeletal muscle cell lysate
T1 sequence (Q9R0E0 1-394): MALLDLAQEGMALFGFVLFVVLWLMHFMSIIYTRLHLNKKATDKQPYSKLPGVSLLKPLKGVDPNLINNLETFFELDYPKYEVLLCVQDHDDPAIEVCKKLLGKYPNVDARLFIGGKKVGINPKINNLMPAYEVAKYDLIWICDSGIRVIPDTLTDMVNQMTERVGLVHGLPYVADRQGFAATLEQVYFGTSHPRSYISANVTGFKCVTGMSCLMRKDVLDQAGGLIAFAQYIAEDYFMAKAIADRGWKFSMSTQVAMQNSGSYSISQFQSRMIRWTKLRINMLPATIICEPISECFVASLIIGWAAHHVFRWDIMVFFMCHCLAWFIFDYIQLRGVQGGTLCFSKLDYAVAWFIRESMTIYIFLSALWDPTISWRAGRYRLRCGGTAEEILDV
Excerpt: In this study, the inventors developed a reliable method to monitor GCS catalytic activity using the fluorescent substrate, C6-NBD-ceramide. The reaction product, C6-NBD-glucosylceramide, could then be detected and quantified by LC-MS/MS. The inventors used this method to test and validate the effect of various GCS inhibitors on GCS enzyme activity from different species.
The MDCK, K-562, and L6 cell lines all endogenously express GCS enzyme and were used to test the effect of various GCS inhibitors on enzyme originating from different species. The GCS enzyme activity was detected by using the fluorescent substrate, C6-NBD-ceramide, and monitoring the formation of the fluorescent reaction product, C6-NBD-glucosylceramide. First, the inventors used cell lysate derived from a canine kidney cell line (MDCK, ATCC Cat #CCL-34™) as the source of GCS and tested the inhibitory activity of several control and test compounds. The inventors then used the human leukemia K-562 cell line (ATCC Cat #[…]) to test the effect of these GCS inhibitors on intact living cells. Finally, a cell lysate derived from a rat skeletal muscle cell line, L6 (ATCC Cat #[…]), was used to test the effect of these GCS inhibitors on rodent GCS enzyme.
GCS activity was evaluated using a GCS enzyme assay derived from MDCK or L6 cell lysates.
MDCK or L6 cell lysates were prepared using M-PER in the presence of a protease inhibitor cocktail. Each 100 mm dish (100% confluent) was lysed with 250 μl of M-PER containing protease inhibitors. Protein concentration was determined using Pierce BCA protein assay kit.
Sixty micrograms of MDCK lysate was incubated with various concentrations of compounds (0.00001 μM-1 μM) in 100 mM Tris buffer (pH 7.5) containing 10 mM MgCl2, 1 mM dithiothreitol, 1 mM EGTA, 2 mM NAD, 100 μM UDP-glucose, 10 μM C6-NBD-ceramide with 35 μM dioleoylphosphatidylcholine/5 μM sulfatide in a final reaction volume of 100 μl at 37° C. for 1 hour. The final concentration of DMSO was 0.1% in both compound treated and DMSO only treated samples. Each individual reaction was terminated with 11 volumes of methanol:acetonitrile (6:5; containing 200 ng/ml Tolbutamide as internal control). After sufficient mixing, reactions were centrifuged at 2000 rpm for 10 mins, supernatant was injected into the LC-MS/MS for analysis.
For the assay with L6 cell lysate, different amounts of L6 cell lysate were used.
The quantitative analysis of C6-NBD-glucosylceramide was performed on a Shimadzu ultra-fast liquid chromatography coupled with API 4000 mass spectrometer. Analyst 1.5 software packages were used to control the LC-MS/MS system, as well as for data acquisition and processing.
The C6-NBD-glucosylceramide reading was normalized first by dividing the peak area of C6-NBD-glucosylceramide with the peak area of the internal standard, and then the amount was calculated according to the standard curve generated in the same assay run. For the cell based assay results, the amount of C6-NBD-glucosylceramide was also normalized by the protein concentration of the cell samples.
To confirm the inhibitory activity of test compounds on GCS from different species, cells from rat were used. First, the presence of GCS activity was verified using various amounts of L6 cell lysate (FIG. 34, Table 26).

physchem = conditions: thermodynamic from solid
[3] = 50 mM acetate buffer, pH 4.5, 37 °C, pH 4.5, aqueous buffer
[4] = 50 mM phosphate buffer, pH 6.8, 37 °C, pH 6.8, aqueous buffer

O=C(N[C@H](CN1CCCC1)[C@H](O)c1ccc(OC2CC2)c(Cl)c1)/C(=N/O)c1ccc2cc(Cl)ccc2c1 [Crystalline Form A of Compound 1]
XRPD after DVS test [1]: No form change | hygroscopicity (DVS) [1]: slightly hygroscopic | Desorp. (DVS) ([1]; 0% RH): 0.02% | Sorp. (water uptake by DVS) ([1]; 0% RH): 0.02% | Desorp. (DVS) ([1]; 10% RH): 0.04% | Sorp. (water uptake by DVS) ([1]; 10% RH): 0.03% | Desorp. (DVS) ([1]; 20% RH): 0.05% | Sorp. (water uptake by DVS) ([1]; 20% RH): 0.04% | Desorp. (DVS) ([1]; 30% RH): 0.06% | Sorp. (water uptake by DVS) ([1]; 30% RH): 0.05% | Desorp. (DVS) ([1]; 40% RH): 0.09% | Sorp. (water uptake by DVS) ([1]; 40% RH): 0.06% | Sorp. (water uptake by DVS) ([1]; 50% RH): 0.09% | Sorp. (water uptake by DVS) ([1]; 60% RH): 0.12% | Sorp. (water uptake by DVS) ([1]; 70% RH): 0.14% | Sorp. (water uptake by DVS) ([1]; 80% RH): 0.22% | Sorp. (water uptake by DVS) ([1]; 90% RH): 0.39% | water uptake increased from 40% RH to 90% RH ([1]; DVS): about 0.33% | XRPD after DVS test ([1]; listed as Free form Crystalline Form A of Compound 1): No form change | XRPD after DVS test ([1]; listed as free form Crystalline Form A of Compound 1): no form change | C6-NBD-Ceramide (Normalized to internal control) ([2]; 30 μg L6 lysate/reaction): 6.69 and 6.31 | C6-NBD-Glucosylceramide Concentration ([2]; 30 μg L6 lysate/reaction): 9.73 nM and 10.5 nM | Inhibition ([2]; 30 μg L6 lysate/reaction): 98.57% and 98.45% | inhibition at 0.1 µM ([2]; 30 μg L6 lysate/reaction): > 98% | C6-NBD-Ceramide (Normalized to internal control) ([2]; 60 μg L6 lysate/reaction): 5.87 and 6.17 | C6-NBD-Glucosylceramide Concentration ([2]; 60 μg L6 lysate/reaction): 22.5 nM and 26.3 nM | Inhibition ([2]; 60 μg L6 lysate/reaction): 97.64% | inhibition at 0.1 µM ([2]; 60 μg L6 lysate/reaction): 98% | C6-NBD-Ceramide (Normalized to internal control) ([2]; 120 μg L6 lysate/reaction): 6.09 and 6.11 | C6-NBD-Glucosylceramide Concentration ([2]; 120 μg L6 lysate/reaction): 45.8 nM and 44.7 nM | Inhibition ([2]; 120 μg L6 lysate/reaction): 96.74% | inhibition at 0.1 µM ([2]; 120 μg L6 lysate/reaction): 96.7% | C6-NBD-Ceramide (Normalized to internal control) ([2]; 180 μg L6 lysate/reaction): 5.15 and 5.12 | C6-NBD-Glucosylceramide Concentration ([2]; 180 μg L6 lysate/reaction): 54.7 nM and 59.0 nM | Inhibition ([2]; 180 μg L6 lysate/reaction): 95.55% | inhibition at 0.1 µM ([2]; 180 μg L6 lysate/reaction): 95.9% | C6-NBD-Ceramide (Normalized to internal control) ([2]; 240 μg L6 lysate/reaction): 5.72 and 5.61 | C6-NBD-Glucosylceramide Concentration ([2]; 240 μg L6 lysate/reaction): 76.9 nM and 78.2 nM | Inhibition ([2]; 240 μg L6 lysate/reaction): 93.51% | inhibition at 0.1 µM ([2]; 240 μg L6 lysate/reaction): 93.6% | solubility at 2 h (physchem; [3]): 230 µg/mL (≈ 424 µM) | solubility at 24 h (physchem; [3]): 210 µg/mL (≈ 387 µM) | solubility at 2 h (physchem; [4]): 10 µg/mL (≈ 18.4 µM) | solubility at 24 h (physchem; [4]): 5 µg/mL (≈ 9.22 µM) | solubility at 24 h (physchem; 0.1N HCl, pH 1.2, 37 °C, pH 1.2, simulated gastric fluid): 970 µg/mL (≈ 1790 µM) | solubility at 2 h (physchem; FaSSIF-V1, 37 °C, pH 6.5, fassif): 30 µg/mL (≈ 55.3 µM) | solubility at 2 h (physchem; FeSSIF-V1, 37 °C, pH 5, fessif): 1970 µg/mL (≈ 3630 µM) | solubility at 24 h (physchem; FeSSIF-V1, 37 °C, pH 5, fessif): > 2000 µg/mL | solubility at 2 h (physchem; SGF, 37 °C, pH 2, simulated gastric fluid): 1160 µg/mL (≈ 2140 µM)
